Source: PMC5061470, “Promiscuous targeting of bromodomains by bromosporine identifies BET proteins as master regulators of primary transcription response in leukemia” (Science Advances, 2016)

Key:
LXRbeta (h) = LXRbeta (h) (Homo sapiens, UniProt P55055); assay: biochemical; format: binding
[1] = tested on: Ca2+ channel (L, verapamil site) (phenylalkylamine); format: binding
[2] = target: choline transporter (CHT1) (h) (Homo sapiens, UniProt Q9GZV3); assay: biochemical; format: binding
MT3 (ML2) = MT3 (ML2) (Mesocricetus auratus, UniProt A0ABM2YAB8); assay: biochemical; format: binding
Chain of MT3 (ML2) (A0ABM2YAB8 entry or part of it): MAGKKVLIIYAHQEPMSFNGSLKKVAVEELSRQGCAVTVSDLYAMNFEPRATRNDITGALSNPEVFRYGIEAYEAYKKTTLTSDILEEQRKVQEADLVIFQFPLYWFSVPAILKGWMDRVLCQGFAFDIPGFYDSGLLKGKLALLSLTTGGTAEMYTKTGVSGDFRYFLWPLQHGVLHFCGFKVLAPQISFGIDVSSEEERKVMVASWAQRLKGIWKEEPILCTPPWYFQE

PAF (h) = PAF (h) (Homo sapiens, UniProt P25105); assay: biochemical; format: binding; conditions: read-out: Ki Ref.
Chain of PAF (h) (P25105 whole entry): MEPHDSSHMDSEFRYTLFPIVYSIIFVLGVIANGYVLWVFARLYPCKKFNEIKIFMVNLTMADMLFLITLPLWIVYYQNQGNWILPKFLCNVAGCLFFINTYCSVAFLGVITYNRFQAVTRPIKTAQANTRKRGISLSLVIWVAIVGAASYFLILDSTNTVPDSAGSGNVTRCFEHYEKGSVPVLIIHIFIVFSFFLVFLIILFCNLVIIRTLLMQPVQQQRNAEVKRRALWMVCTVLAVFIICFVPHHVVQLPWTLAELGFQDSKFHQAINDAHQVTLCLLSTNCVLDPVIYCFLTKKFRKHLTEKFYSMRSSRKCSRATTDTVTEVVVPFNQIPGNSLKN

KASUMI-1 = assay: cells; format: cell-based, human; conditions: read-out: IC50, cell proliferation
K562 [3] = format: cell-based, human
K562 [4] = format: cell-based, human; remark: listed apart in the source
MV4;11 [5] = format: cell-based, human
MV4;11 [6] = assay: cells; format: cell-based, human; conditions: read-out: IC50, cell proliferation
OCI-AML3 = assay: cells; format: cell-based, human; conditions: read-out: IC50, cell proliferation
H4 (h) = H4 (h) (Homo sapiens, UniProt Q9H3N8); assay: biochemical; format: binding
Chain of H4 (h) (Q9H3N8 whole entry): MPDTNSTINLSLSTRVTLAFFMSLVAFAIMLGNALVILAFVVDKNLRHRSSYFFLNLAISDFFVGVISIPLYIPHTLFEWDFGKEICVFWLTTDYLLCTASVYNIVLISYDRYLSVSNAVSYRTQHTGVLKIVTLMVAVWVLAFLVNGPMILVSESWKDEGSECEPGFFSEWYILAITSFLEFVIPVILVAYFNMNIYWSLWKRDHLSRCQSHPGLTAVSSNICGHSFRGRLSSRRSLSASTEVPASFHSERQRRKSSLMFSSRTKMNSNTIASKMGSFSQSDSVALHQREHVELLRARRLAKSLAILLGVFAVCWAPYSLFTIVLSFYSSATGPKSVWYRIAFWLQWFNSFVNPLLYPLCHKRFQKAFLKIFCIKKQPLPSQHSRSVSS

Cl- channel (GABA-gated) = format: binding
PCP = format: binding
GABA transporter = format: binding
5-HT2B (h) = 5-HT2B (h) (Homo sapiens, UniProt P41595); assay: biochemical; format: binding
Chain of 5-HT2B (h) (P41595 whole entry): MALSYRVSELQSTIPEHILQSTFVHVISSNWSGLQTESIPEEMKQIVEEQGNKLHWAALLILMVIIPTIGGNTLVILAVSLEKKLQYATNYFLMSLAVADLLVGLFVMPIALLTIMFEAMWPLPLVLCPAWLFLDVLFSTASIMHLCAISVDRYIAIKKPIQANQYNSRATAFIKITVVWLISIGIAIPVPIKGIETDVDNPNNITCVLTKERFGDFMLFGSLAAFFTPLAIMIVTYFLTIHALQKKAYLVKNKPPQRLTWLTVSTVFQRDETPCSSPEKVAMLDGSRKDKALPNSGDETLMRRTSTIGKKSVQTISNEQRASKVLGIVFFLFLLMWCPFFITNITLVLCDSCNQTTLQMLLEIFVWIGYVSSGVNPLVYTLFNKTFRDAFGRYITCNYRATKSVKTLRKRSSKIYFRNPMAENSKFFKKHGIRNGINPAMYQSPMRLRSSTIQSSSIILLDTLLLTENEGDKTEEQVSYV

5-HT2C (h) = 5-HT2C (h) (Homo sapiens, UniProt P28335); assay: biochemical; format: binding
Chain of 5-HT2C (h) (P28335 33-458): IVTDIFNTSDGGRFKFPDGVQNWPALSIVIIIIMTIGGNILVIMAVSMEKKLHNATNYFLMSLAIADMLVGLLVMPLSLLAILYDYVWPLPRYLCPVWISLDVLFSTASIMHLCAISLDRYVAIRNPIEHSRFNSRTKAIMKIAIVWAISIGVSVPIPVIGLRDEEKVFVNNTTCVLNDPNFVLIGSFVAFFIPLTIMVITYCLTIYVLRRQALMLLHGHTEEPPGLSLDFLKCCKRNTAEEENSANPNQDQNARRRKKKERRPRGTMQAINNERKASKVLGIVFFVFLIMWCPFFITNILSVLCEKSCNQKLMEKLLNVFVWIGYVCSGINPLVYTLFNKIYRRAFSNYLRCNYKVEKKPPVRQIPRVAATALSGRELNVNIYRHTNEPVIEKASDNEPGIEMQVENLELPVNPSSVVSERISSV

Ca2+ channel (N) = Ca2+ channel (N) (Rattus norvegicus, UniProt Q02294); assay: biochemical; format: binding
Na+ channel (site 2) = format: binding
K562 [7] = assay: Genome-wide expression analysis / MetaCore, GSEA; format: cell-based, human; conditions: K562, 6-hour treatment, 500 nM
MV4;11 [8] = assay: Genome-wide expression analysis / MetaCore, GSEA; format: cell-based, human; conditions: MV4;11, 6-hour treatment, 500 nM
BZD (central) = format: binding
motilin (h) = motilin (h) (Homo sapiens, UniProt O43193); assay: biochemical; format: binding
Chain of motilin (h) (O43193 whole entry): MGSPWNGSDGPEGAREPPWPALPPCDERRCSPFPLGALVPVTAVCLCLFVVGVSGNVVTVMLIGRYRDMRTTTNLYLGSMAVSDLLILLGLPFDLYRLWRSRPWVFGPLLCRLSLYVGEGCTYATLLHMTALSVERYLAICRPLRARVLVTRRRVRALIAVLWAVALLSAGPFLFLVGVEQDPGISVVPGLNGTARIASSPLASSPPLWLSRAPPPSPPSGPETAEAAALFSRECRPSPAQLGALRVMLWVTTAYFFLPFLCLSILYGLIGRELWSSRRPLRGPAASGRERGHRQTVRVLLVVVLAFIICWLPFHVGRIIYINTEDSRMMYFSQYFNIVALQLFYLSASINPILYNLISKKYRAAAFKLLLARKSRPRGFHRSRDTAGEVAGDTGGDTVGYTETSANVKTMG

Chain of LXRbeta (h) (P55055 whole entry): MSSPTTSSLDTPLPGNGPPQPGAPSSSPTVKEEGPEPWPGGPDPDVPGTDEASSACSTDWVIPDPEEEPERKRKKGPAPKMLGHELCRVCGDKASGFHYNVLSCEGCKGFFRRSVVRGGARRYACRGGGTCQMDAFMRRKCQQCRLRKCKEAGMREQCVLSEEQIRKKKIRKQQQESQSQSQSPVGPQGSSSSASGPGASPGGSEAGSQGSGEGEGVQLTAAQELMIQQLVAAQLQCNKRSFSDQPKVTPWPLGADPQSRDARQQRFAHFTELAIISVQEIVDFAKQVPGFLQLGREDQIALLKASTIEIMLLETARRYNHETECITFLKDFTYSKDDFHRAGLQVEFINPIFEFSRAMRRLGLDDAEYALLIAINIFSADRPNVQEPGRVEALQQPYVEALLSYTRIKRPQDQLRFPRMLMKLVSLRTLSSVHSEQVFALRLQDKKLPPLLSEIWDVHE
Chain of choline transporter (CHT1) (h) (Q9GZV3 whole entry): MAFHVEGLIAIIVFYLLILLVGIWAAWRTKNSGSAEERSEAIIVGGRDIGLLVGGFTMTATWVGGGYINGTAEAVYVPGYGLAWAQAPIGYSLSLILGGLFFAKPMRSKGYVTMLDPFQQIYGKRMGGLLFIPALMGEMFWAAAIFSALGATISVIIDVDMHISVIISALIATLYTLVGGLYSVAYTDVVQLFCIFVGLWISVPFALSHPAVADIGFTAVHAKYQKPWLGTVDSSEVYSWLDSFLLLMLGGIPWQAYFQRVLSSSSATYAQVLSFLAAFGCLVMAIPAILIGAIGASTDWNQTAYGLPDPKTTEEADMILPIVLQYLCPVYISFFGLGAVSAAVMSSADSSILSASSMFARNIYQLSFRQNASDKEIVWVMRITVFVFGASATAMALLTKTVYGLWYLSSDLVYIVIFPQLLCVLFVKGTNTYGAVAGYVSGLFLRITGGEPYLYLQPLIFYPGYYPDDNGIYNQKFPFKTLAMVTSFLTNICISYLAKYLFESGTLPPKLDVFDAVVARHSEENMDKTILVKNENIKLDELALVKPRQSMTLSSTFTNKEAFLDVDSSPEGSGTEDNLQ

Molecule: CC(C)CC[C@@H](O)[C@@H](C)[C@H]1CC[C@H]2[C@@H]3CC=C4C[C@@H](O)CC[C@]4(C)[C@H]3CC[C@]12C [22(R)-hydroxycholesterol]
- IC50 (LXRbeta (h)): 2400 nM
- Ki (LXRbeta (h)): 1700 nM

Molecule: COc1ccc(CCN(C)CCCC(C#N)(c2cc(OC)c(OC)c(OC)c2)C(C)C)cc1OC (stereo not drawn) [D 600]
- IC50 [1]: 19 nM
- Ki ([1]; read-out: Ki Ref.): 9.3 nM

Molecule: C[N+]1(C)CCOC(O)(c2ccc(-c3ccc(C4(O)C[N+](C)(C)CCO4)cc3)cc2)C1 (stereo not drawn) [hemicholinium-3]
- IC50 [2]: 4.9 nM
- Ki [2]: 2.8 nM

Molecule: COc1ccc2[nH]cc(CCNC(C)=O)c2c1 [melatonin]
- IC50 (MT3 (ML2)): 170 nM
- Ki (MT3 (ML2)): 170 nM

Molecule: CCCCCCCCCCCCCCCCOC[C@H](COP(=O)([O-])OCC[N+](C)(C)C)OC(C)=O [C16-PAF, reference compound]
- Ki (PAF (h)): 0.77 nM

Molecule: (+)-JQ1 [reference compound]
- IC50 (KASUMI-1): 42.7 nM
- effect on cell cycle (K562 [3]): little effect on cell cycle
- effect on cell proliferation (K562 [4]): No significant effect
- effect on cell cycle (MV4;11 [5]): distinct G1 arrest with reduced S-phase populations
- IC50 (MV4;11 [6]): 80.2 nM
- IC50 (OCI-AML3): 49.5 nM

Molecule: N=C(N)SCCc1cnc[nH]1 [imetit]
- IC50 (H4 (h)): 12 nM
- Ki (H4 (h)): 5.1 nM

Molecule: C=C(C)[C@@H]1[C@H]2OC(=O)[C@@H]1[C@]1(O)C[C@H]3O[C@]34C(=O)O[C@H]2[C@]14C [picrotoxinin, reference compound]
- IC50 (Cl- channel (GABA-gated)): 150 nM

Molecule: C[C@]12N[C@H](Cc3ccccc31)c1ccccc12 [MK 801]
- IC50 (PCP): 10 nM
- Ki (PCP; read-out: Ki Ref.): 5.8 nM

Molecule: O=C(O)C1CCCNC1 (stereo not drawn) [nipecotic acid, reference compound]
- IC50 (GABA transporter): 1600 nM

Molecule: COc1cc(CC(C)N)c(OC)cc1I (racemic) [(±)DOI]
- IC50 (5-HT2B (h)): 3 nM
- Ki (5-HT2B (h); read-out: Ki Ref.): 1.5 nM
- IC50 (5-HT2C (h)): 0.88 nM
- Ki (5-HT2C (h); read-out: Ki Ref.): 0.79 nM

Molecule: C[C@@H](O)[C@@H]1NC(=O)[C@H](Cc2ccc(O)cc2)NC(=O)[C@@H]2C[C@@H](O)CN2C(=O)[C@H](CC(N)=O)NC(=O)[C@@H]2CSSC[C@@H]3NC(=O)[C@H](CO)NC(=O)[C@H](CO)NC(=O)CNC(=O)[C@@H]4C[C@@H](O)CN4C(=O)[C@H](CO)NC(=O)[C@H](CCCCN)NC(=O)[C@@H](N)CSSC[C@H](NC(=O)[C@H](CSSC[C@@H](C(=O)N[C@@H](Cc4ccc(O)cc4)C(N)=O)NC(=O)[C@H](CCCN=C(N)N)NC(=O)[C@H](CCCCN)NC1=O)NC(=O)[C@H](CC(N)=O)NC(=O)[C@H](Cc1ccc(O)cc1)NC(=O)[C@H](CO)NC(=O)[C@H]([C@@H](C)O)NC(=O)[C@@H]1C[C@@H](O)CN1C(=O)[C@H](CO)NC3=O)C(=O)N[C@@H](CCCN=C(N)N)C(=O)N[C@@H](CO)C(=O)N2 [omega -conotoxin GVIA, reference compound]
- IC50 (Ca2+ channel (N)): 0.0024 nM

Molecule: COc1ccc(C(=O)O[C@H]2CC[C@@]3(C)[C@@H]4CC[C@H]5[C@]6(O)C[C@H](O)[C@@]7(O)[C@@H](CN8C[C@@H](C)CC[C@H]8[C@@]7(C)O)[C@]6(O)C[C@@]53O[C@]24O)cc1OC [veratridine]
- IC50 (Na+ channel (site 2)): 6400 nM
- Ki (Na+ channel (site 2); read-out: Ki Ref.): 5700 nM

Molecule: CCCOc1ccn2c(C(C)=O)cc(-c3ccccc3S(C)(=O)=O)c2c1 [GSK2801]
- effect on gene expression (K562 [7]): no significant effect
- effect on gene expression (MV4;11 [8]): no significant effect

Molecule: CN1C(=O)CN=C(c2ccccc2)c2cc(Cl)ccc21 [diazepam, reference compound]
- IC50 (BZD (central)): 9 nM

Molecule: CCCC[C@H](NC(=O)[C@H](CCCNC(=N)N)NC(=O)[C@H](CCC(N)=O)NC(=O)[C@H](CC(C)C)NC(=O)[C@H](CCC(=O)O)NC(=O)CNC(=O)[C@H](Cc1ccc(O)cc1)NC(=O)[C@@H](NC(=O)[C@H](Cc1ccccc1)NC(=O)[C@@H](NC(=O)[C@@H]1CCCN1C(=O)[C@@H](NC(=O)[C@@H](N)Cc1ccccc1)C(C)C)[C@@H](C)CC)[C@@H](C)O)C(=O)N[C@@H](CCC(N)=O)C(=O)N[C@@H](CCC(=O)O)C(=O)N[C@@H](CCCCN)C(=O)N[C@@H](CCC(=O)O)C(=O)N[C@@H](CCCNC(=N)N)C(=O)N[C@@H](CC(N)=O)C(=O)N[C@@H](CCCCN)C(=O)NCC(=O)N[C@@H](CCC(N)=O)C(=O)O [[Nleu13]-motilin]
- IC50 (motilin (h)): 2 nM
- Ki (motilin (h)): 1.7 nM
